Assay [1] concerns housefly (Musca domestica). Nature of the assay: Emergence inhibition of housefly larvae reared in treated artificial culture (Test Example 2). The assay is classed as in vivo. To be noted: read-out: Emergence inhibition. The protocol: Powdered animal feed (2 g) was thoroughly mixed with bran (14 g). An emulsifiable concentrate prepared according to Formulation Example 1 was diluted with water to a designed concentration and the dilution was added to the above mixture. The resultant mixture was stirred well to make an artificial culture. Thirty larvae of housefly (Musca domestica) were reared therein until their pupation. The obtained pupae were placed into a plastic cup, and the rate of emergence was determined. According to the following equation, the emergence inhibition (%) was calculated: [formula]

For assay [2], the system named is common mosquito (Culex pipiens pallens). Briefly: Rate of emergence of last instar larvae of common mosquito reared 7 days in treated water (Test Example 1). To be noted: 3.5 ppm. The format is in vivo. The method, then: An emulsifiable concentrate prepared according to Formulation Example 1 was diluted with water to make a 400 fold dilution. The dilution (0.7 ml) was added to 100 ml of distilled water. Last instar larvae of common mosquito (Culex pipiens pallens) were released therein and reared for 7 days until their emergence. The rate of emergence was observed according to the following criteria: […]

The mark [3] stands for this setting: 0.3 ppm, Musca domestica larvae.
Setting [4] is: last instar larvae of Culex pipiens pallens, reared 7 days.

Like-named read-outs stand apart in the source and are kept apart here.

By inhibition is commonly meant the drop in the measured response relative to a control, in per cent. On to `COC(C)(C)CCCC(C)C/C=C/C(C)=C/C(=O)OC(C)C` (stereo not drawn) [(a), methoprene, reference compound], for which, in assay [1] (Musca domestica), the inhibition at 0.3 ppm is 2%, the inhibition at 1 ppm came to 13% and the inhibition at 3 ppm turned out to be 60%. In assay [2] (168 h), the Rate of emergence entry was “A (less than 10%)”.

Take `CC(C)COc1ccc(OCCOc2ccccn2)cc1` [Compound No. 2]: the inhibition at 0.3 ppm in assay [1] (setting [3]) turned out to be 3%. Moreover, in assay [1] (1 ppm, Musca domestica larvae), the inhibition at 1 ppm came to 42%. The inhibition at 3 ppm in assay [1] (3 ppm, Musca domestica larvae) turned out to be 100%. Also, the Rate of emergence result in assay [2] (setting [4]) is given as “A (less than 10%)”.

For `CC(C)CCOc1ccc(OCCOc2ccccn2)cc1` [Compound No. 7], the inhibition at 0.3 ppm in assay [1] (setting [3]) was 31%. Besides, in assay [1] (1 ppm, Musca domestica larvae), the inhibition at 1 ppm was determined as 87%. Further, in assay [1] (3 ppm, Musca domestica larvae), the inhibition at 3 ppm amounted to 100%. For the same molecule, the Rate of emergence entry in assay [2] (setting [4]) was “A (less than 10%)”.

As to `CCCCOc1ccc(OCCOc2ccccn2)cc1` [Compound No. 9], the Rate of emergence result in assay [2] (setting [4]) is “A (less than 10%)”.

For `CC(C)CCOc1ccc(OCCSc2ccccn2)cc1` [Compound No. 22], the Rate of emergence entry in assay [2] (setting [4]) was “A (less than 10%)”.

With `CC(C)COCc1ccc(OCCOc2nccs2)cc1` [Compound No. 29], the inhibition at 0.3 ppm in assay [1] (setting [3]) came out at 100%. The inhibition at 1 ppm in assay [1] (1 ppm, Musca domestica larvae) came to 100%. Besides, in assay [1] (3 ppm, Musca domestica larvae), the inhibition at 3 ppm amounted to 100%. Moreover, the Rate of emergence entry in assay [2] (setting [4]) is on record as “A (less than 10%)”.

Take `COC(C)(C)CCCC(C)CCCCOc1ccccn1` (stereo not drawn) [compound 1]: in assay [2] (setting [4]), the Rate of emergence result was “A (less than 10%)”.

In the case of `COC(C)(C)COc1ccc(OCCOc2ccccn2)cc1` [compound 3], in assay [2] (setting [4]), the Rate of emergence entry is listed as “A (less than 10%)”.

Regarding `CC(C)CCCC(C)CCCCOc1ncccn1` (stereo not drawn) [compound 4], the Rate of emergence entry in assay [2] (setting [4]) was “A (less than 10%)”.

For `C=C(C)COc1ccc(OCCOc2ccccn2)cc1` [compound 5], the Rate of emergence result in assay [2] (setting [4]) is reported as “A (less than 10%)”.

`C=CCOc1ccc(OCCOc2ccccn2)cc1` [compound 6]: in assay [2] (setting [4]), the Rate of emergence result is reported as “A (less than 10%)”.

As to `CCOc1ccc(OCCOc2ccccn2)cc1` [compound 8], in assay [2] (setting [4]), the Rate of emergence entry is recorded as “A (less than 10%)”.

Take `CCCOc1ccc(OCCOc2ccccn2)cc1` [compound 10]: in assay [2] (setting [4]), the Rate of emergence result is listed as “A (less than 10%)”.

In the case of `CCCCCOc1ccc(OCCOc2ccccn2)cc1` [compound 11], the Rate of emergence entry in assay [2] (setting [4]) was “A (less than 10%)”.

As for `CCC(C)COc1ccc(OCCOc2ccccn2)cc1` (stereo not drawn) [compound 12], the inhibition at 0.3 ppm in assay [1] (setting [3]) amounted to 0%. In addition, the inhibition at 1 ppm in assay [1] (1 ppm, Musca domestica larvae) was 20%. The inhibition at 3 ppm in assay [1] (3 ppm, Musca domestica larvae) was found to be 83%. The Rate of emergence result in assay [2] (setting [4]) is “A (less than 10%)”.

On to `CC(C)(C)CCOc1ccc(OCCOc2ccccn2)cc1` [compound 13], for which the Rate of emergence entry in assay [2] (setting [4]) is “A (less than 10%)”.

Consider `CC(C)(C)COc1ccc(OCCOc2ccccn2)cc1` [compound 14], for which the Rate of emergence result in assay [2] (setting [4]) is reported as “A (less than 10%)”.

Turning to `CC(C)CCOc1ccc(OCC(C)Oc2ccccn2)cc1` (stereo not drawn) [compound 15], the inhibition at 0.3 ppm in assay [1] (setting [3]) stood at 0%. Further, the inhibition at 1 ppm in assay [1] (1 ppm, Musca domestica larvae) turned out to be 43%. Moreover, the inhibition at 3 ppm in assay [1] (3 ppm, Musca domestica larvae) came to 93%. In addition, in assay [2] (setting [4]), the Rate of emergence entry is “A (less than 10%)”.

For the molecule `CC(C)CCOc1ccc(OCCOc2nccs2)cc1` [compound 16], in assay [1] (setting [3]), the inhibition at 0.3 ppm stood at 45%. In addition, the inhibition at 1 ppm in assay [1] (1 ppm, Musca domestica larvae) stood at 96%. Also, in assay [1] (3 ppm, Musca domestica larvae), the inhibition at 3 ppm was 100%. The Rate of emergence entry in assay [2] (setting [4]) is recorded as “A (less than 10%)”.

`CC(C)CCOc1ccc(OC(C)COc2ncccn2)cc1` (stereo not drawn) [compound 17]: in assay [2] (setting [4]), the Rate of emergence result is reported as “A (less than 10%)”.

With `CC(C)CCOc1ccc(OC(C)COc2ccccn2)cc1` (stereo not drawn) [compound 18], the Rate of emergence entry in assay [2] (setting [4]) was “A (less than 10%)”.

Take `CC(C)CCOc1ccc(OCC(C)Oc2ncccn2)cc1` (stereo not drawn) [compound 19]: the Rate of emergence result in assay [2] (setting [4]) is recorded as “A (less than 10%)”.

With `CC(C)CCOc1ccc(OCCOc2ncccn2)cc1` [compound 20], in assay [2] (setting [4]), the Rate of emergence result is reported as “A (less than 10%)”.

On to `CC(C)CCOc1ccc(OCCSC2=NCCS2)cc1` [compound 21], for which the Rate of emergence result in assay [2] (setting [4]) is “A (less than 10%)”.

With `CC(C)CCOc1ccc(OCCSc2ncccn2)cc1` [compound 23], in assay [2] (setting [4]), the Rate of emergence result is on record as “A (less than 10%)”.

In the case of `CC(C)CCOc1ccc(OC(C)COc2nccs2)cc1` (stereo not drawn) [compound 24], the Rate of emergence result in assay [2] (setting [4]) was “A (less than 10%)”.

For `CC(C)CCOc1ccc(OCC(C)Oc2nccs2)cc1` (stereo not drawn) [compound 25], the inhibition at 0.3 ppm in assay [1] (setting [3]) was 8%. In addition, the inhibition at 1 ppm in assay [1] (1 ppm, Musca domestica larvae) worked out at 58%. In assay [1] (3 ppm, Musca domestica larvae), the inhibition at 3 ppm amounted to 100%. The Rate of emergence result in assay [2] (setting [4]) is “A (less than 10%)”.

In the case of `CC(C)COc1ccc(OCCOc2nccs2)cc1` [compound 26], the inhibition at 0.3 ppm in assay [1] (setting [3]) is 11%. Also, the inhibition at 1 ppm in assay [1] (1 ppm, Musca domestica larvae) was found to be 61%. Further, the inhibition at 3 ppm in assay [1] (3 ppm, Musca domestica larvae) came out at 100%. Further, the Rate of emergence entry in assay [2] (setting [4]) is reported as “A (less than 10%)”.

As to `COC(C)(C)COc1ccc(OCCOc2nccs2)cc1` [compound 27], the Rate of emergence result in assay [2] (setting [4]) was “A (less than 10%)”.

With `CC(C)COCc1ccc(OCCOc2ccccn2)cc1` [compound 28], the inhibition at 0.3 ppm in assay [1] (setting [3]) is 93%. In addition, the inhibition at 1 ppm in assay [1] (1 ppm, Musca domestica larvae) turned out to be 100%. The inhibition at 3 ppm in assay [1] (3 ppm, Musca domestica larvae) turned out to be 100%. Also, in assay [2] (setting [4]), the Rate of emergence result is listed as “A (less than 10%)”.

`CC(C)CCOc1ccc(OCCOc2nccs2)cc1Cl` [compound 30]: the Rate of emergence result in assay [2] (setting [4]) is “A (less than 10%)”.

For `Cc1cc(OCCOc2nccs2)cc(C)c1OCCC(C)C` [compound 31], in assay [2] (setting [4]), the Rate of emergence result was “A (less than 10%)”.

As for `CC(C)CCOc1ccc(OCCOc2ccccn2)cc1Cl` [compound 32], the inhibition at 0.3 ppm in assay [1] (setting [3]) was determined as 3%. In assay [1] (1 ppm, Musca domestica larvae), the inhibition at 1 ppm came out at 56%. In assay [1] (3 ppm, Musca domestica larvae), the inhibition at 3 ppm came out at 94%. In addition, the Rate of emergence result in assay [2] (setting [4]) is reported as “A (less than 10%)”.

For `Cc1cc(OCCOc2ccccn2)cc(C)c1OCCC(C)C` [compound 33], the Rate of emergence result in assay [2] (setting [4]) is “A (less than 10%)”.

As to `CC(C)CCCc1ccc(OCCOc2ccccn2)cc1` [compound 34], the inhibition at 0.3 ppm in assay [1] (setting [3]) turned out to be 41%. Further, the inhibition at 1 ppm in assay [1] (1 ppm, Musca domestica larvae) is 67%. In addition, the inhibition at 3 ppm in assay [1] (3 ppm, Musca domestica larvae) was determined as 100%. Further, the Rate of emergence result in assay [2] (setting [4]) is “A (less than 10%)”.

For the molecule `CC(C)CCCc1ccc(OCCOc2nccs2)cc1` [compound 35], the inhibition at 0.3 ppm in assay [1] (setting [3]) worked out at 51%. In assay [1] (1 ppm, Musca domestica larvae), the inhibition at 1 ppm turned out to be 100%. Also, the inhibition at 3 ppm in assay [1] (3 ppm, Musca domestica larvae) came out at 100%. Moreover, the Rate of emergence result in assay [2] (setting [4]) is “A (less than 10%)”.
